In data set [1] the test system is HIV strain G (protease mutant). The data set can be described thus: Antiviral spectrum, mutant HIV strain G. Type of data set: cell-based. The conditions noted are these: FR=EC50(mutant strain)/EC50(HIV-1 strain LAI); calculated averages. The method, then: (§1) HIV- or mock-infected MT4 cells were incubated for five days in the presence of various concentrations of the inhibitor. At the end of the incubation period, all HIV-infected cells have been killed by the replicating virus in the control cultures in the absence of any inhibitor. Cell viability is measured by measuring the concentration of MTT, a yellow, water soluble tetrazolium dye that is converted to a purple, water insoluble formazan in the mitochondria of living cells only. Upon solubilization of the resulting formazan crystals with isopropanol, the absorbance of the solution is monitored at 540 nm. The values correlate directly to the number of living cells remaining in the culture at the completion of the five day incubation. The inhibitory activity of the compound was monitored on the virus-infected cells and was expressed as EC50 and EC90. These values represent the amount of the compound required to protect 50% and 90%, respectively, of the cells from the cytopathogenic effect of the virus. […] Wherever results are reported as e.g. pEC50 or pCC50 values, the result is expressed as the negative logarithm of the result expressed as EC50 or CC50 respectively. […]
(§2) As a measure of the broad spectrum activity of the present compounds, the fold resistance (FR), defined as FR=EC50(mutant strain)/EC50(HIV-1 strain LAI), was determined.

In data set [2] the test system is HIV strain F (protease mutant). In words: Antiviral spectrum, mutant HIV strain F. The class given is cell-based. Particulars: FR=EC50(mutant strain)/EC50(HIV-1 strain LAI); calculated averages. The method, then:
as §1, §2

The test system of data set [3] is HIV strain A (protease mutant). The data set can be described thus: Antiviral spectrum, mutant HIV strain A. Type of data set: cell-based. Particulars: FR=EC50(mutant strain)/EC50(HIV-1 strain LAI); calculated averages. As to the method: as §1, §2
Data set [4] has as its system HIV strain D (protease mutant). In words: Antiviral spectrum, mutant HIV strain D. The conditions noted are these: FR=EC50(mutant strain)/EC50(HIV-1 strain LAI); calculated averages. Type of data set: cell-based. The method, then:
as §1, §2

A further data set deals with HIV-1 strain LAI. In words: Cellular anti-HIV assay (MT4 cells, MTT), wild type strain. The class given is cell-based. The method, then: The compounds of the present invention were examined for anti-viral activity in a cellular assay. […] The cellular assay was performed according to the following procedure.
HIV- or mock-infected MT4 cells were incubated for five days in the presence of various concentrations of the inhibitor. At the end of the incubation period, all HIV-infected cells have been killed by the replicating virus in the control cultures in the absence of any inhibitor. Cell viability is measured by measuring the concentration of MTT, a yellow, water soluble tetrazolium dye that is converted to a purple, water insoluble formazan in the mitochondria of living cells only. Upon solubilization of the resulting formazan crystals with isopropanol, the absorbance of the solution is monitored at 540 nm. The values correlate directly to the number of living cells remaining in the culture at the completion of the five day incubation. The inhibitory activity of the compound was monitored on the virus-infected cells and was expressed as EC50 and EC90. […] Wherever results are reported as e.g. pEC50 or pCC50 values, the result is expressed as the negative logarithm of the result expressed as EC50 or CC50 respectively.
as §2

Data set [5] deals with HIV strain E (protease mutant). The data set can be described thus: Antiviral spectrum, mutant HIV strain E. The class given is cell-based. Particulars: FR=EC50(mutant strain)/EC50(HIV-1 strain LAI); calculated averages. As to the method:
as §1, §2

Data set [6] concerns HIV strain C (protease mutant). The data set can be described thus: Antiviral spectrum, mutant HIV strain C. Type of data set: cell-based. The conditions noted are these: FR=EC50(mutant strain)/EC50(HIV-1 strain LAI); calculated averages. As to the method:
as §1, §2

Data set [7] relates to HIV strain B (protease mutant). The data set can be described thus: Antiviral spectrum, mutant HIV strain B. Type of data set: cell-based. Particulars: FR=EC50(mutant strain)/EC50(HIV-1 strain LAI); calculated averages. As to the method: as §1, §2
Data set [8] in a line: Toxicity on mock-infected MT4 cells (MTT). Particulars: human. Type of data set: cell-based. The method, then:
HIV- or mock-infected MT4 cells were incubated for five days in the presence of various concentrations of the inhibitor. At the end of the incubation period, all HIV-infected cells have been killed by the replicating virus in the control cultures in the absence of any inhibitor. Cell viability is measured by measuring the concentration of MTT, a yellow, water soluble tetrazolium dye that is converted to a purple, water insoluble formazan in the mitochondria of living cells only. Upon solubilization of the resulting formazan crystals with isopropanol, the absorbance of the solution is monitored at 540 nm. The values correlate directly to the number of living cells remaining in the culture at the completion of the five day incubation. The inhibitory activity of the compound was monitored on the virus-infected cells and was expressed as EC50 and EC90. These values represent the amount of the compound required to protect 50% and 90%, respectively, of the cells from the cytopathogenic effect of the virus. […] Wherever results are reported as e.g. pEC50 or pCC50 values, the result is expressed as the negative logarithm of the result expressed as EC50 or CC50 respectively.
as §2

A short description of data set [9]: Oral availability in the rat (serum concentration, LC-MS). Type of data set: in vivo. Particulars: both sexes, 10 mg/kg. As to the method:
The oral availability of a selected compound was evaluated in a standard set of kinetic experiments, primarily in male and female rats and secondarily in male and female dogs. The compound was formulated as a 20 mg/ml solution or suspension in DMSO, PEG400 or cyclodextin 40% (CD40%) in water. For most experiments in the rat, three dosing groups were formed: 1/single intraperitoneal dose at 20 mg/kg using the DMSO formulation; 2/single oral dose at 20 mg/kg using the PEG400 formulation and 3/single oral dose at 20 mg/kg using the cyclodextrin formulation. In the dog, only the oral route of administration was used. Blood was sampled at regular time intervals after dosing and drug concentrations in the serum were determined using a LC-MS bioanalytical method. Serum concentrations were expressed in […] after normalization to 10 mg/kg. Below, the serum concentration at 30 minutes and at 3 hours is listed as these values reflect the extent of absorption (30′) and the speed of elimination (180′). The oral bioavailability in the rat was examined using DMSO and PEG formulations (cfr supra). The serum concentration following administration of 10 mg/kg of compound 1 was 10.2 ng/ml at 30 min (DMSO) and 22.2 ng/ml (PEG). The intraperitoneal absorption of a dose of 10 mg/kg (DMSO formulation) was 2076 ng/ml 30 minutes (min) following administration and 208 ng/ml 180 min following administration.

Where two headings read alike, the source gives them in different places. Bounds are passed on as bounds.

Consider “5-Methyl-isoxazole-4-carboxylic acid{3-[(3-amino-benzo[d]isoxazole-5-sulfonyl)-isobutyl-amino]-1-benzyl-2-hydroxy-propyl}-amide [Compound 6]”, for which the “FR towards mutant G” value in data set [1] is on record as 16. Besides, the “FR towards mutant F” value in data set [2] is 16. The “FR towards mutant A” value in data set [3] is reported as 16. For the same compound, in [4], the “FR towards mutant D” value is 16. Moreover, the “WT (pEC50)” value in the data set with HIV-1 strain LAI (calculated averages) was 6.2. Also, the “FR towards mutant E” value in data set [5] is 7.2. In addition, the “FR towards mutant C” value in [6] was 5.5. The “FR towards mutant B” value in [7] is 5.6.

The term CC50 denotes the concentration giving 50% cytotoxicity. A high value points to lower toxicity to the cells. Regarding `CC(C)CN(C[C@@H](O)[C@H](Cc1ccccc1)NC(=O)O[C@H]1CO[C@H]2OCC[C@H]21)S(=O)(=O)c1ccc2onc(N)c2c1` [Compound 1, {3-[(3-Amino-benzo[d]isoxazole-5-sulfonyl)-isobutyl-amino]-1-benzyl-2-hydroxy-propyl}-carbamic acid hexahydro-furo[2,3-b]furan-3-yl ester], the “FR towards mutant G” value in data set [1] is given as 6.9. Moreover, the CC50 at 5 days in data set [8] was above 100000 nM. For the same compound, the concentration at 30 min in data set [9] (ip, intraperitoneal, DMSO formulation, 30 min following administration, read-out: intraperitoneal absorption (serum concentration)) was found to be 2080 ng/mL; in [9] (po, oral, DMSO formulation, at 30 min, read-out: serum concentration) it was 10.2 ng/mL; in data set [9] (po, oral, PEG formulation, read-out: serum concentration), 22.2 ng/mL. For the same compound, the concentration at 180 min in data set [9] (ip, intraperitoneal, DMSO formulation, 180 min following administration, read-out: intraperitoneal absorption (serum concentration)) turned out to be 208 ng/mL. Moreover, the “FR towards mutant F” value in data set [2] is 0.85. Also, in data set [3], the “FR towards mutant A” value is 0.63. In addition, the “FR towards mutant D” value in [4] is on record as 0.35. Besides, the EC50 in the data set with HIV-1 strain LAI (Human immunodeficiency virus 1, calculated averages, read-out: WT (pEC50) (converted)) is 7.94 nM. Also, in data set [5], the “FR towards mutant E” value was 0.30. The “FR towards mutant C” value in data set [6] is 0.49. Also, in data set [7], the “FR towards mutant B” value is given as 0.78.

These data come from patent US7462636B2, “Broadspectrum substituted benzisoxazole sulfonamide HIV protease inhibitors” (priority 2002, dated 2008).
